Assay results from patent US12648946B2, “Combination of antibody-pyrrolobenzodiazepine derivative conjugate and PARP inhibitor” (DAIICHI SANKYO COMPANY, LIMITED, priority 2019, dated 2026).
Where two headings read alike, the source gives them in different places. Blank lines part the entries; values can stand above or below the molecule they belong to.

Key:
[1] = system: human lung cancer cell line Calu-6; assay: Cell growth inhibition test (1); format: cell-based; details: Calu-6, 144 h
Protocol: (§1) The human lung cancer cell line Calu-6 obtained from ATCC (American Type Culture Collection) was used for evaluation. Cells were prepared with MEM containing 10% fetal bovine serum (GE Healthcare), MEM Non-Essential Amino Acids Solution (Thermo Fisher Scientific), and Sodium Pyruvate (Thermo Fisher Scientific) (Thermo Fisher Scientific; hereinafter, referred to as EMEM medium) to reach 1.25×10^4 cells/mL, and 80 μL portions of them were added into a 96-well cell culture microplate. After addition of the cells, the cells were cultured at 37° C. and 5% CO2 overnight.
(§2) On the next day, 10 μL portions of pyrrolobenzodiazepine derivative A, B, or C diluted with EMEM medium to 100 pM, 50 pM, 25 pM, 12.5 pM, 6.25 pM, 3.13 pM, 1.56 pM, or 0.78 pM were added to the microplate. To each well without any pyrrolobenzodiazepine derivative, 10 μL of EMEM medium was added. Further, 10 μL portions of olaparib prepared with EMEM medium to reach 2 μM were added to the microplate. To each well without olaparib, 10 μL of EMEM medium was added. Thereafter, the microplate was cultured at 37° C. and 5% CO2 for 6 days. After culturing, the microplate was taken out of the incubator, and left to stand at room temperature for 30 minutes. CellTiter-Glo Luminescent Cell Viability Assay (Promega Corporation) in an amount equivalent to that of the culture solution was added, and stirred using a plate mixer. The microplate was left to stand at room temperature for 10 minutes, and thereafter the amount of emission was measured by using a plate reader (PerkinElmer).
(§3) Cell survival rates in wells with derivative A, B, or C were calculated by using the following formula.
(§4) [formula] • a: Mean value of amounts of emission from wells with derivative A, B, or C • b: Mean value of amounts of emission from wells with medium • IC50 values were calculated by using the following formula.
(§5) [formula] • a: Concentration of derivative A, B, or C, a • b: Concentration of derivative A, B, or C, b • c: Cell survival rate when derivative A, B, or C of concentration a was added • d: Cell survival rate when derivative A, B, or C of concentration b was added • a and b satisfy a>b at points sandwiching a cell survival rate of 50%.
Cell survival rates in wells with derivative A, B, or C added together with 2 μM olaparib were calculated by using the following formula.
[formula] a: Mean value of amounts of emission from wells with derivative A, B, or C added together with 2 μM olaparib • b: Mean value of amounts of emission from wells with 2 μM olaparib • IC50 values were calculated by using the following formula.
as §5, with “and 2 μM olaparib were” for “was”

[2] = system: human pharyngeal cancer cell line FaDu; assay: Cell growth inhibition test (2); format: cell-based; details: 144 h
Protocol: as §1, with “pharyngeal” for “lung”, “FaDu” for “Calu-6”, “6.25×10^3” for “1.25×10^4”
as §2, with “reach 1” for “reach 2”
Cell survival rates in wells with derivative A, B, or […] were calculated by using the following formula.
as §4, §5
Cell survival rates in wells with derivative A, B, or C added together with 1 μM olaparib were calculated by using the following formula.
[formula] • a: Mean value of amounts of emission from wells with derivative A, B, or C added together with 1 μM olaparib • b: Mean value of amounts of emission from wells with 1 μM olaparib • IC50 values were calculated by using the following formula.
as §5, with “and 1 μM olaparib were” for “was”

[3] = system: human pharyngeal cancer cell line FaDu; assay: Cell growth inhibition test (3); format: cell-based; details: 144 h
Protocol: as §1, with “pharyngeal” for “lung”, “FaDu” for “Calu-6”, “6.25×10^3” for “1.25×10^4”
as §2, with “talazoparib” for “olaparib”, “nM” for “μM”, “talazoparib,” for “olaparib,”
as §3, §4, §5
Cell survival rates in wells with derivative A, B, or C added together with 2 nM talazoparib were calculated by using the following formula.
[formula] • a: Mean value of amounts of emission from wells with derivative A, B, or C added together with 2 nM talazoparib • b: Mean value of amounts of emission from wells with 2 nM talazoparib • IC50 values were calculated by using the following formula.
as §5, with “and 2 nM talazoparib were” for “was”

[4] = system: human ovarian cancer cell line OV-90; assay: Antitumor test (4), subcutaneous xenograft; format: in vivo, mouse; details: single administration
Protocol: Mouse: Five- to six-week-old female BALB/c nude mice (Charles River Laboratories Japan, Inc.) were subjected to experiment.
Assay and calculation formula: In all of the studies, the major axis and minor axis of a tumor were measured twice a week by using an electronic digital caliper (CD-15CX, Mitutoyo Corp.), and the tumor volume (mm^3) was calculated. The calculation formula is as shown below.
Each of the anti-CLDN6 antibody-drug conjugate ADC1, the anti-HER2 antibody-drug conjugate ADC2, and the anti-TROP2 antibody-drug conjugate ADC3 was diluted with ABS buffer (10 mM acetate buffer (pH 5.5), 5% sorbitol), and a liquid volume of 10 mL/kg was intravenously administered into the tail vein. Olaparib was dissolved in Dimethyl sulfoxide (DMSO), diluted with 10% 2-hydroxy-propyl-β-cyclodextrin (Sigma-Aldrich Co. LLC)/Dulbecco's Phosphate-Buffered Saline, and then a liquid volume of 10 mL/kg was intraperitoneally administered. Talazoparib was dissolved in DMSO, diluted with 10% N,N-dimethylacetamide/5% Kolliphor HS15 (Sigma-Aldrich Co. LLC)/Dulbecco's Phosphate-Buffered Saline, and then a liquid volume of 10 mL/kg was orally administered. […]

[5] = molecular target: T1, human claudin-6 (Homo sapiens, UniProt P56747); assay: FACS analysis of hybridoma antibodies on claudin-6 forced-expression cells; format: binding; details: human claudin-6-expressing CHO-K1 cells, cDNA transfection
T1 construct: expressed in transfected cells; host or cells: CHO-K1 cells
T1 sequence (P56747 1-220): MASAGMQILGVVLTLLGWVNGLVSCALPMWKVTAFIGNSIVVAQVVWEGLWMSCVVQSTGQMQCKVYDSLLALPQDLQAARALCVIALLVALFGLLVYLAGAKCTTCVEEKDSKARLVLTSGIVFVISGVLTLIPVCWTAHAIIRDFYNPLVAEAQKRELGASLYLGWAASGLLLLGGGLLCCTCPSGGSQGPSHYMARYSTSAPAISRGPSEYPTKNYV
Protocol: Since the antigen for the 218B1 antibody and 218C7 antibody was estimated to be claudin-6 from the mass spectrometry, forced expression analysis by cDNA transfection was carried out.

[6] = system: JEG-3, human choriocarcinoma cell line of human CLDN6-positive cells; assay: Internalization activity of antibodies (Mab-ZAP, CellTiter-Glo); format: cell-based; details: antibody 1 nM with Mab-ZAP 0.5 nM, 5 days
Protocol: (§6) Internalization activity of the mouse anti-CLDN6 antibodies B1 and C7 was evaluated by using the anti-mouse IgG reagent, to which a toxin that inhibits protein synthesis (saporin) had been conjugated, Mab-ZAP (Advanced Targeting Systems). In this evaluation, Mab-ZAP is incorporated into cells in a manner depending on the internalization activity of a mouse anti-CLDN6 antibody, and saporin, which inhibits protein synthesis, is released in the cells to suppress cell growth.
(§7) JEG-3 (ATCC HTB-36), a human choriocarcinoma cell line of human CLDN6-positive cells, NIH: OVCAR-3 (ATCC HTB-161), a human ovarian cancer cell line of human CLDN6-positive cells, or BxPC-3 (ATCC CRL-1687), a human pancreatic cancer cell line of human CLDN6-negative cells, was seeded in a 96-well cell culture microplate at 2×10^3 cells/well, and cultured under conditions of 37° C. and 5% CO2 overnight. On the next day, a mixed solution obtained by mixing each mouse anti-CLDN6 antibody or mouse IgG1 antibody (R&D Systems, Inc.) to a final concentration of 1 nM, with Mab-ZAP (final concentration: 0.5 nM) or AffiniPure Goat Anti-Mouse IgG, Fcγ Fragment Specific (Jackson ImmunoResearch Laboratories Inc.) (final concentration: 0.5 nM), without conjugated toxin, was added, and the cells were cultured under conditions of 37° C. and 5% CO2 for 5 days. The number of surviving cells was determined through quantification of ATP activity by using CellTiter-Glo Luminescent Cell Viability Assay (Promega Corporation).

[7] = system: NIH: OVCAR-3, human ovarian cancer cell line of human CLDN6-positive cells; assay: as above; format: cell-based; details: antibody 1 nM with Mab-ZAP 0.5 nM, 5 days
Protocol: as §6, §7

[8] = system: BxPC-3, human pancreatic cancer cell line of human CLDN6-negative cells; assay: as above; format: cell-based; details: antibody 1 nM with Mab-ZAP 0.5 nM, 5 days
Protocol: as §6, §7

[9] = read-out: IC50, growth-suppressing effect, added singly, Calu-6, 6 days
[10] = read-out: IC50, growth-suppressing effect, added together with 2 μM olaparib, Calu-6, 6 days
[11] = read-out: IC50, growth-suppressing effect, added singly, FaDu, 6 days (test 2)
[12] = read-out: IC50, growth-suppressing effect, added together with 1 μM olaparib, FaDu, 6 days
[13] = read-out: IC50, growth-suppressing effect, added singly, FaDu, 6 days (test 3)
[14] = read-out: IC50, growth-suppressing effect, added together with 2 nM talazoparib, FaDu, 6 days

Molecule: COc1cc2c(cc1OCCCCCOc1cc3c(cc1OC)C(=O)N1CC4(CC4)C[C@H]1CN3)N=C[C@@H]1CC3(CC3)CN1C2=O [derivative B, (11a′S)-7′-Methoxy-8′-[(5-{[(11a′S)-7′-methoxy-5′-oxo-5′,11a′-dihydro-1′H-spiro[cyclopropane-1,2′-pyrrolo[2,1-c][1,4]benzodiazepine]-8′-yl]oxy}pentyl)oxy]-1′,10′,11′,11a′-tetrahydro-5′H-spiro[cyclopropane-1,2′-pyrrolo[2,1-c][1,4]benzodiazepine]-5′-one]
IC50 [1, 9]: 0.12 nM
IC50 [1, 10]: 0.0794 nM
IC50 [2, 11]: 0.123 nM
IC50 [2, 12]: 0.0719 nM
IC50 [3, 13]: 0.121 nM
IC50 [3, 14]: 0.0821 nM

Molecule: NC(=O)c1cccc2cn(-c3ccc([C@@H]4CCCNC4)cc3)nc12 [niraparib]
findings such as weight loss ([4]; Day 21, OV-90 model): no particularly significant finding such as weight loss
tumor growth inhibition (TGI) ([4]; niraparib 75 mg/kg oral for 5 days from Day 0, Day 21, OV-90): 1%

Molecule: COc1ccc(C2=CN3C(=O)c4cc(OC)c(OCCCOc5cc6c(cc5OC)C(=O)N5CC7(CC7)C[C@H]5C=N6)cc4NC[C@@H]3C2)cc1 [derivative C, (11a′S)-7′-Methoxy-8′-(3-{[(11aS)-7-methoxy-2-(4-methoxyphenyl)-5-oxo-5,10,11,11a-tetrahydro-1H-pyrrolo[2,1-c][1,4]benzodiazepin-8-yl]oxy}propoxy)-1′,11a′-dihydro-5′H-spiro[cyclopropane-1,2′-pyrrolo[2,1-c][1,4]benzodiazepine]-5′-one]
IC50 [1, 9]: 0.113 nM
IC50 [1, 10]: 0.0894 nM
IC50 [2, 11]: 0.0732 nM
IC50 [2, 12]: 0.0445 nM
IC50 [3, 13]: 0.0831 nM
IC50 [3, 14]: 0.0512 nM

FACS reaction [5]: strong positive reaction
B1: B1: mouse anti-CLDN6 antibody from hybridoma 218B1; heavy chain variable region SEQ ID NO: 21, light chain SEQ ID NO: 19 (antibody, listed as Mus musculus, V domains shown)
VH: EVQLQQSGPELVKPGASVKISCKTSGYTFTEYTMHWVQQSHGKSLEWIGGVNPNSGDTSYNQKFKGKATLTVDKSSSTAYMELRSLTSEDSAVYYCARPGGYDVGYYAMDYWGQGTSVTVSS
VL: DIQMTQTASSLSASLGDRVTISCRASQDINNYLNWYQQKPDGTVKLLIYFTSRLHSGVPSRFSGSGSGTHYSLTITNLEQEDIATYFCQQGYPLPWTFGGGTKLEIK
modifications: amino acid sequence of variable region of B1 antibody heavy chain; amino acid sequence of variable region of B1 antibody light chain
Cell growth-suppressing effect (internalization activity) [6]: cell growth-suppressing effect
Cell growth-suppressing effect (internalization activity) [7]: cell growth-suppressing effect
Cell growth-suppressing effect (internalization activity) [8]: no cell growth-suppressing effect
